{
  "source": "patent US20260344668A1",
  "about": "“PHENYLPYRAZOLE COMPOUND, AND PLANT DISEASE CONTROL METHOD” (priority 2022, published 2026)",
  "key": {"Phakopsora pachyrhizi [1]": {"system": "Phakopsora pachyrhizi", "test": "Test Example 11 Control Test Against Soybean Rust (pot test, spraying before inoculation)", "assay_type": "in vivo", "details": "200 ppm foliage spray, soybeans (Kurosengoku), inoculated after 2 to 5 days", "how_it_was_run": "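Soybeans (cv. Kurosengoku), grown 10–14 days in pots, foliar-sprayed with formulated compound at 200 ppm, inoculated 2–5 days later with Phakopsora pachyrhizi spores. Kept humid 1–2 days at 23 °C day/20 °C night, then greenhouse 12 days; lesion area scored against unsprayed plants.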"}, "[2]": {"system": "soybean rust fungus (Phakopsora pachyrhizi) having an amino acid substitution of F129L in a mitochondrial cytochrome b protein", "test": "Test Example 7 Control Test Against Soybean Rust (leaf disk)", "assay_type": "in vivo", "details": "200 ppm, 10 μL per soybean leaf disk (cultivar: Kurosengoku), inoculated after 1 day", "how_it_was_run": "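Soybean (Kurosengoku) leaf disks of 1 cm on 1.2% agar were sprayed with compound in a DMSO/xylene/Sorpol emulsion diluted in water to a prescribed concentration. One day later they were spray-inoculated with F129L cytochrome b mutant P. pachyrhizi spores (1.0×10^5/mL) and kept at 23 °C, 60% humidity, 6 h light, for about 13 days. Lesion area was compared with DMSO-treated disks.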"}, "Phakopsora pachyrhizi [3]": {"system": "Phakopsora pachyrhizi", "test": "Test Example 16 Control Test Against Soybean Rust Fungus (spore germination, petri dish)", "assay_type": "cell-based", "details": "treatment concentration 10 ppm, 23° C., 1 day", "protocol": "(§1) The term of “non-treated well” in Test Example 4, Test Example 5, and Test Example 6 represents a well wherein a test was carried out under the same conditions as those described in each Test Example except for dispensing DMSO instead of a diluted solution with DMSO comprising the Present compound. Also, the term of “non-treated” in Test Examples 15 to 17 represents a test which was carried out under the same conditions as those described in each Test Example except for dispensing DMSO instead of a diluted solution with DMSO comprising the Present compound. Also, the term of “non-treated leaf disk” in Test Example 7 represents a leaf disk wherein a test was carried out under the same conditions as those described in the Test Example except for dispensing DMSO instead of a diluted solution with DMSO comprising the Present compound. Also, the term of “non-treated” in Test Example 10 and Test Example 11 means that a diluted solution with water of a formulation comprising the Present compound was not sprayed.\nAn agar medium (agar concentration: 1.0%) (3 mL) was placed in a plastic petri dish having a diameter of 3.5 cm, and solidified. Each Present compound was diluted with DMSO in such a way that the resulting diluted solution containing 10000 ppm of the compound, and said solution (1 μL) and an aqueous suspension (1.0×10^4/mL) (999 μL) of spores of Phakopsora pachyrhizi to which spores of Phakopsora pachyrhizi were suspended were mixed, and then the resulting mixture was dispensed into the plastic petri dish. This plastic petri dish was cultured at 23° C. for 1 day, and then germinated spores of Phakopsora pachyrhizi were counted. As a result, when the treatment concentration was 10 ppm, and any one of the Present compound 9, 10, 28, 29, or 32 was used as the test compound to carry out the test, the number of germinated spores in each plastic petri dish using the above each Present compound as the test compound was 50% or less relative to the number of germinated spores in the non-treated plastic petri dish."}, "Phakopsora pachyrhizi [4]": {"system": "Phakopsora pachyrhizi", "test": "Test Example 17 Control Test Against Soybean Rust Fungus (spore germination, petri dish)", "assay_type": "cell-based", "details": "method according to Test Example 16", "protocol": "as §1\nAn agar medium (agar concentration: 1.0%) (3 mL) was placed in a plastic petri dish having a diameter of 3.5 cm, and solidified. […] This plastic petri dish was cultured at 23° C. for 1 day, and then germinated spores of Phakopsora pachyrhizi were counted. […]"}, "Botrytis cinerea": {"system": "Botrytis cinerea", "test": "Test Example 4 Control Test Against Cucumber Botrytis Rot Fungus (96 well titer plate growth)", "assay_type": "cell-based", "details": "1 μL of 150 ppm DMSO solution + 150 μL complete medium, 18° C., 4 days, absorbance at 550 nm", "protocol": "The term of “non-treated well” in Test Example 4, Test Example 5, and Test Example 6 represents a well wherein a test was carried out under the same conditions as those described in each Test Example except for dispensing DMSO instead of a diluted solution with DMSO comprising the Present compound. Also, the term of “non-treated” in Test Examples 15 to 17 represents a test which was carried out under the same conditions as those described in each Test Example except for dispensing DMSO instead of a diluted solution with DMSO comprising the Present compound. Also, the term of “non-treated leaf disk” in Test Example 7 represents a leaf disk wherein a test was carried out under the same conditions as those described in the Test Example except for dispensing DMSO instead of a diluted solution with DMSO comprising the Present compound. […]\nThe Present compound 24 was diluted with DMSO to obtain a diluted solution containing 150 ppm of the compound, and 1 μL of the diluted solution was dispensed into a titer plate (96 well), and thereto was then dispensed 150 μL of a complete medium to which spores of Botrytis cinerea were inoculated in advance. This plate was cultured at 18° C. for 4 days, thereby allowing Botrytis cinerea to undergo proliferation, and the absorbance at 550 nm of each well of the titer plate was then measured to determine a degree of growth of Botrytis cinerea. […]"}, "Septoria tritici": {"system": "Septoria tritici", "test": "Test Example 10 Control Test Against Wheat Leaf Blotch (pot test)", "assay_type": "in vivo", "details": "200 ppm foliage spray, wheat (Apogee), inoculated after 4 days", "protocol": "as §1\nA plastic pot was filled with soil, wheat (cultivar: Apogee) was seeded thereto, and cultured in a greenhouse for 10 days. […]"}},
  "data": [
    {"smiles": "O=S(=O)(c1cccnc1)n1ccc(-c2cc(F)c(Br)c(F)c2)n1", "note": "[compound 10]", "values": [
      {"measurement": "lesion area relative to the lesion area in the non-treated soybeans", "setting": "Phakopsora pachyrhizi [1]", "value": "≤ 30", "unit": "%"},
      {"measurement": "lesion area relative to the lesion area of non-treated leaf disk", "setting": "[2]", "value": "≤ 30", "unit": "%"},
      {"measurement": "number of germinated spores relative to the non-treated plastic petri dish", "setting": "Phakopsora pachyrhizi [3]", "value": "≤ 50", "unit": "%"}
    ]},
    {"smiles": "O=S(=O)(c1ccccc1)n1ccc(-c2cc(F)c(Br)c(F)c2)n1", "note": "[compound 9]", "values": [
      {"measurement": "lesion area relative to the lesion area in the non-treated soybeans", "setting": "Phakopsora pachyrhizi [1]", "value": "≤ 30", "unit": "%"},
      {"measurement": "lesion area relative to the lesion area of non-treated leaf disk", "setting": "[2]", "value": "≤ 30", "unit": "%"},
      {"measurement": "number of germinated spores relative to the non-treated plastic petri dish", "setting": "Phakopsora pachyrhizi [3]", "value": "≤ 50", "unit": "%"}
    ]},
    {"smiles": "Cc1ccc(S(=O)(=O)n2ccc(-c3ccc4c(c3)OC(F)(F)O4)n2)cc1", "note": "[compound 61]", "values": [
      {"measurement": "number of germinated spores relative to the non-treated plastic petri dish", "setting": "Phakopsora pachyrhizi [4]", "value": "≤ 50", "unit": "%"}
    ]},
    {"smiles": "COc1ccccc1S(=O)(=O)n1ccc(-c2cc(F)c(Br)c(F)c2)n1", "note": "[compound 24]", "values": [
      {"measurement": "degree of growth relative to the degree of growth in the non-treated well", "setting": "Botrytis cinerea", "value": "≤ 50", "unit": "%"}
    ]},
    {"smiles": "Cn1cnc(S(=O)(=O)n2ccc(-c3cccc(C(=O)NC4CC4)c3)n2)c1", "note": "[compound 31]", "values": [
      {"measurement": "lesion area relative to the lesion area in the non-treated wheat", "setting": "Septoria tritici", "value": "≤ 30", "unit": "%"}
    ]},
    {"smiles": "O=S(=O)(c1ccccc1)n1ccc(-c2ccc(Cl)cc2)n1", "note": "[compound 4]", "values": [
      {"measurement": "lesion area relative to the lesion area in the non-treated wheat", "setting": "Septoria tritici", "value": "≤ 30", "unit": "%"}
    ]}
  ]
}
